Results from the SangsterLogP compilation.

Experiments:
[1] = method code SF-AS, from DOI: 10.1248/cpb.32.4084, PMID: 6099228; conditions: pH 7.4
[2] = method code RP-HPLC, from DOI: 10.2166/wqrj.1987.010; conditions: pH 7.0
[3] = not given; remark: listed apart in the source
[4] = method code SF-HPLC, from DOI: 10.1023/a:1015924724973, PMID: 2762226; conditions: pH 7.4
[5] = method code SF, from DOI: 10.1021/jm00237a002, PMID: 1133810; conditions: pH 7.2
[6] = not given; remark: listed apart in the source
[7] = method code SF, from DOI: 10.1023/a:1016286026462, PMID: 8570535
[8] = method code SF-AS, from THAKUR, B.; Mehta, U.; TIPNIS, P. (1981). Ortho effect in partition coefficients of some o-benzyloxybenzamides. Indian J Pharm Sci, 43(6)224-226.
[9] = method code SF-AS/HPLC, from Ellington, J. J. (1988). Octanol/water partition coefficients for evaluation of hazardous waste land disposal: Selected chemicals. US Environmental Protection Agency, Environmental Research …
[10] = method code SF-AS, from Busch, N.; Moleyre, J.; Bondivenne, R.; Labrid, C. (1973). Study of the predictive value of the Hansch correlation equations for a series of beta-alkoxy-beta-phenylethyl pyrrolidines. Chimica …
[11] = not given; remark: listed apart in the source
[12] = not given; remark: listed apart in the source
[13] = method code SF-AS, from Schaper, J. (1979). Simultaneous determination of electronic and lipophilic properties of acids and bases by nonlinear regression analysis of pH-dependent partition measurements. J. Chem. Research …
[14] = from Sparatore, F.; Grieco, C.; Silipo, C.; Vittoria, A. (1979). Use of regression analysis to correlate auxin activity with chemical physical and structural properties of benzotriazole derivatives. III. …; conditions: pH 5.6
[15] = method code SF-HPLC, from DOI: 10.1021/jm00112a026, PMID: 1875345; conditions: pH 7.4
[16] = not given; remark: listed apart in the source
[17] = not given; remark: listed apart in the source
[18] = not given; remark: listed apart in the source
[19] = not given; remark: listed apart in the source
[20] = method code SF-AS, from DOI: 10.1023/a:1016392123137, PMID: 24272811
[21] = not given; remark: listed apart in the source
[22] = not given; remark: listed apart in the source
[23] = method code SF-AS, from DOI: 10.1248/cpb.32.5003, PMID: 6534549
[24] = method code SF-HPLC, from DOI: 10.1016/j.ejpb.2006.11.002, PMID: 17182232; conditions: pH 7.4
[25] = method code SF, from DOI: 10.1021/jm00114a024, PMID: 1920362
[26] = not given; remark: listed apart in the source
[27] = method code SF-HPLC, from PMID: 1515051; conditions: pH 6.0
[28] = not given; remark: listed apart in the source
[29] = method code SF-HPLC, from DOI: 10.1002/ps.2780170106
[30] = not given; remark: listed apart in the source
[31] = not given; remark: listed apart in the source
[32] = not given; remark: listed apart in the source
[33] = method code SF-ESR, from DOI: 10.1515/znc-1987-7-832, PMID: 2961152
[34] = not given; remark: listed apart in the source
[35] = method code SF-HPLC, from DOI: 10.1016/j.ejpb.2012.12.004, PMID: 23262162
[36] = not given; remark: listed apart in the source

## O=C(CN1CCCCC1)Nc1ccc(Cl)c(Cl)c1
[1]
  logD: 3.65

## Clc1cc2oc3cc(Cl)c(Cl)c(Cl)c3c2cc1Cl
other
  logP: 6.7

## Cc1cc(Cl)ccc1OCC(=O)OCCCCCC(C)C
[2]
  logD: 6.69

## Clc1ccc(-c2ccc(Cl)c(Cl)c2)cc1Cl
[3]
  logP: 6.04

## N[C@@H](Cc1ccc(O)c(O)c1)C(=O)OCCCCO
[4]
  logD: -0.46

## COc1ccc(NC(=O)CN2CCCCC2)cc1
[1]
  logD: 2.52

## CCOc1cnc(NS(=O)(=O)c2ccccc2)nc1
[5]
  logD: 0.53

## c1ccc2c(c1)Cc1ccccc1-2
[6]
  logP: 4.2

## Oc1cc(Cl)ccc1Oc1ccc(Cl)cc1Cl
[7]
  logP: 4.53

## NC(=O)c1ccccc1OCc1ccc([N+](=O)[O-])cc1
[8]
  logP: 1.73

## O=[N+]([O-])c1cc(C2CCCCC2)c(O)c([N+](=O)[O-])c1
[9]
  logP: 4.12

## COc1ccc(C=CC(=O)OCCC(C)C)cc1
[7]
  logP: 4.83

## OC(CN1CCCC1)c1ccccc1 (stereo not drawn)
[10]
  logP: 1.38

## C=CCC(CC=C)(C(N)=O)c1ccc2c(c1)OCO2
[11]
  logP: 2.1

## CCC(CC)(C(N)=O)c1ccc2c(c1)OCO2
[11]
  logP: 1.59

## CNC(=O)Oc1cc(C)c(N(C)C)c(C)c1
[12]
  logP: 2.56

## Clc1cc2oc3c(Cl)c(Cl)c(Cl)cc3c2cc1Cl
other
  logP: 6.31

## CN(C)c1ccc(NS(=O)(=O)c2ccc(N)cc2)cc1
[13]
  logP: 1.57

## c1ccc2c(c1)ccc1cc3ccc4ccccc4c3nc12
[6]
  logP: 6.42

## Cc1ccc(NS(=O)(=O)c2ccc(N)cc2)cc1
[13]
  logP: 2.11

## COC(CN1CCCC1)c1ccccc1 (stereo not drawn)
[10]
  logP: 1.88

## OCCCCCn1nnc2ccccc21
[14]
  logD: 1.51

## OC(CN1C2C3CCC(C3)C21)Cn1ccnc1 (stereo not drawn)
[15]
  logD: 1.6

## c1ccc2[nH]c(SCCC3CCCCC3)nc2c1
[16]
  logP: 4.5

## CCC1(c2ccccc2)C(=O)NC(=O)N(C(C)C)C1=O (stereo not drawn)
[17]
  logP: 2.58

## Cc1ccc(COc2ccccc2C(N)=O)cc1
[8]
  logP: 1.86

## Brc1cc(Br)cc(-c2cc(Br)cc(Br)c2)c1
[3]
  logP: 7.41

## Clc1ccc(-c2ccc(Cl)cc2Cl)cc1
[18]
  logP: 5.62

## Clc1cc(Cl)c(-c2cc(Cl)c(Cl)c(Cl)c2Cl)cc1Cl
[19]
  logP: 7.15

## Cc1ccc2c(N)nc(-c3ccccn3)cc2c1
[20]; pH 6.0
  logD: 3.04

## OCCCCCCn1nc2ccccc2n1
[14]
  logD: 2.26

## Clc1cc2c(c(Cl)c1Cl)Oc1c(Cl)c(Cl)c(Cl)c(Cl)c1O2
[21]
  logP: 8.2

## Clc1ccccc1C(c1ccccc1)(c1ccccc1)n1ccnc1
[22]
  logP: 4.75

## O=C(Cc1ccccc1)Nc1ccccc1F
[23]
  logP: 2.62

## CCOC(=O)C(NC(=O)c1cccnc1)n1cc(F)c(=O)[nH]c1=O (stereo not drawn)
[24]
  logD: 0.21

## CNCCN(C)S(=O)(=O)c1ccc(CONC(N)=O)c([N+](=O)[O-])c1
[25]
  logP: 0.45

## CCOC(=O)C1CCC2C(C1)N2CC(O)Cn1ccnc1 (stereo not drawn)
[15]
  logD: 1.13

## CC(C)OP(=O)(OC(C)C)SCc1ccccc1
[26]
  logP: 3.43

## CCc1cnc(NS(=O)(=O)c2ccccc2)nc1
[5]
  logD: 0.88

## CCC1(CC)C(=O)NC(=O)N=C1OC(C)C
[17]
  logP: 1.86

## CNC(=O)Oc1cccc2c1OC(C)(C)C2
[2]
  logD: 1.88

## CCCCOC(=O)[C@@H](N)Cc1ccc(O)c(O)c1
[4]
  logD: 1.19

## CCOC(=O)n1c(-c2cscn2)nc2ccccc21
[27]
  logD: 2.51

## c1ccc2c(c1)ccc1ccccc12
[19]
  logP: 4.69

## Clc1ccccc1-c1ccccc1Cl
[18]
  logP: 4.8

## COC(=O)[C@H]1CSC(c2nc3ccc(O)cc3s2)=N1
[28]
  logP: 2.23

## COC(=O)C(NC(=O)c1cccnc1)n1cc(F)c(=O)[nH]c1=O (stereo not drawn)
[24]
  logD: -0.12

## N#CCCOc1cccc2ccccc12
[29]; pH 6.4
  logD: 2.8

## CCCc1nc(S(=O)(=O)Nc2c(F)cccc2F)nn1-c1ccccc1
[30]
  logP: 4.2

## S=C=Nc1ccc(-c2ccc(N=C=S)cc2)cc1
[31]
  logP: 5.5

## c1ccc(Cc2nc3ccccc3[nH]2)cc1
[16]
  logP: 4.16

## CS(=O)(=O)c1ccc([C@@H](O)[C@@H](CO)NC(=O)C(Cl)Cl)cc1
[22]
  logP: 0.15

## CC(C)(C)NC(=O)[C@@H]1CN(Cc2cccnc2)CCN1C[C@@H](O)C[C@@H](Cc1ccccc1)C(=O)N[C@H]1c2ccccc2C[C@H]1O
[32]
  logP: 2.79

## CC1(C)CC(NC(=O)N(CCCl)N=O)C(C)(C)[N+]1(C)[O-] (stereo not drawn)
[33]
  logP: 1.64

## Clc1cccc2c1Oc1ccccc1O2
[21]
  logP: 4.75

## CCN(CC)CCSCc1ccccc1
[34]
  logP: 2.66

## Oc1ccc(/C=C/c2cc(O)cc(O)c2)cc1
[35]
  logP: 2.56

## CN(C)CCN(C)S(=O)(=O)c1ccc(C(C)(C)[N+](=O)[O-])c([N+](=O)[O-])c1
[25]
  logP: 1.42

## Nc1ccc(S(=O)(=O)Nc2ccccc2)cc1
[36]
  logP: 1.55

## S=C=NCc1ccc2ccccc2c1
[31]
  logP: 4.42

## O=C(Cc1ccccc1)Nc1ccccc1O
[23]
  logP: 2.4

## CC(C)COC(=O)n1c(-c2cscn2)nc2ccccc21
[27]
  logD: 3.46

## Cc1ccc(Cl)c(NS(=O)(=O)c2nc(C)n(-c3ncccn3)n2)c1Cl
[30]
  logP: 3

## COc1ccc2nc(C3=N[C@@H](C(=O)O)CS3)sc2c1
[28]
  logP: 1.16

## CCOP(=O)(Sc1ccccc1)Sc1ccccc1
[26]
  logP: 3.68

## CCOP(=S)(OCC)SCSc1ccc(Cl)cc1
[12]
  logP: 4.53

## CC1(C)CC(NC(=O)N(CCCl)N=O)CC(C)(C)N1[O]
[33]
  logP: 1.6

## CN1CC(NC(=O)CSC(=O)c2ccccc2)CC2c3cccc4[nH]cc(c34)CC21 (stereo not drawn)
[34]
  logP: 1.9

## CN1C(C(=O)Nc2ccccn2)=C(O)c2sccc2S1(=O)=O
[32]
  logP: 1.9

## O=C(O)CCOc1cccc2ccccc12
[29]; pH 2.0
  logD: 3

## Cc1ccc2ccc3ccc(C)nc3c2n1
[20]
  logP: 2.46

## C/C=C(/C)C(=O)O[C@H]1CCN2CC=C(COC(=O)[C@@](O)([C@H](C)OC)C(C)(C)O)[C@H]12
[9]
  logP: 1.28

## Nc1ccc(S(=O)(=O)Nc2ccc(S(N)(=O)=O)cc2)cc1
[36]
  logP: 0.35
